The results in this text go back to patent US20230286973A1, “PROTEIN SECRETION INHIBITORS” (KEZAR LIFE SCIENCES, priority 2020, published 2023).

For orientation: pEC50 means −log10 of the EC50, conventionally taken in molar units.

SMILES strings stand for the structures. pEC50, pIC50: −log10 of the molar value. A value given as a limit tells only on which side of the number the result lay.

Data set [1] concerns multiple myeloma cell line NCI-H929. The data set is described as follows: H929 Cell Viability Assay. The data set is classed as cell-based, human. To be noted: Homo sapiens, NCI-H929, 48 h, NCI-H929 cells, Celltiter-Glo. Here is the method:
The human multiple myeloma cell line NCI-H929 was cultured in Advanced RPMI 1640 media (Gibco®) supplemented with 6% fetal bovine serum, 2 mM Glutamine, and 1× Penicillin/Streptomycin. On the day of assay, cells were resuspended in RPMI 1640 media supplemented with 10% fetal bovine serum, 2 mM Glutamine, and 1× Penicillin/Streptomycin and plated in 384-well tissue culture plates and treated with compound dilutions in DMSO/media. Plates were incubated at 37° C., 5% CO2 for 48 hours. After 48 hours, Celltiter-Glo® (Promega) was added to each well and luciferase signal was quantified using Tecan Infinite M1000 Pro for cell viability determination.
(§1) For chemical structures that include one or more stereoisomers, but are illustrated without indicating stereochemistry, the assay data refers to a mixture of stereoisomers.
On the technique in general: Cellular ATP, detected with luciferase, serves as a proxy for viable cell number.

A short description of data set [2]: Liver Microsome Stability Assay (human). Conditions: human liver microsomes, with NADPH, 1.0 uM compound. (In general: Liver microsomes are a subcellular fraction often used to study metabolism.)
Procedure: (§3) Stability of a compound was assessed in the presence of liver microsomes from various sources—mouse, rat, monkey and human liver microsomes. 1.0 uM compound, 0.4% DMSO in 0.1 M Potassium Phosphate with 1.0 mg/mL liver microsomes, were incubated at 37° C. with or without 1 mM NADPH. The samples were quenched at 0, and 30 minutes.
The nature of data set [3]: Liver Microsome Stability Assay (rat). To be noted: rat liver microsomes, with NADPH, 1.0 uM compound.
Procedure: as §3
In data set [4] the test system is IL-2-FL/Gaussia Luciferase. The data set is described as follows: Dox Induced IL2-FL-Gluc Assay. The data set is classed as cell-based. Conditions: for pIC50: 24 hr Dox induction, 293FRT/TO cells, mean, read-out: 24 hr Dox Inducible IL2FLGluc 293FRT/TO: Mean IC50; for 24 hr Dox Inducible IL2FLGluc 293FRT/TO: IL2/PD1: ratio of IL2FLGluc IC50 to PD1ssGluc IC50, '<=>' given where both are I.A.
Text: (§2) Flp-In 293 T-REx™ cells were transfected with pcDNA™5/FRT/TO plasmid inserted with cDNA encoding Gaussia Luciferase fused to the 3′ end of cDNA encoding full length IL-2 (amino acids 1-153). Transfected cells were selected for resistance to the selectable markers Hygromycin and Blasticidin to create a stable cell line that contained the IL-2-FL/Gaussia Luciferase cDNA insert whose expression was regulated under the T-REx™ system. The day before assay, cells were trypsinized and plated in 384-well tissue culture plates. The next day, compound dilutions in DMSO/media containing doxycycline were added to the wells and incubated at 37° C., 5% CO2.
as §1

Data set [5] can be described thus: Liver Microsome Stability Assay (monkey). Conditions: monkey liver microsomes, with NADPH, 1.0 uM compound.
Procedure: as §3
Data set [6] deals with multiple myeloma cell line U266B1. The data set is described as follows: U266 Cell Viability Assay. The data set is classed as cell-based, human. To be noted: Homo sapiens, U-266, 48 h, U266B1 cells, Celltiter-Glo. The method, then: The human multiple myeloma cell line U266B1 was cultured in RPMI 1640 media supplemented with 10% fetal bovine serum, 2 mM Glutamine, and 1× Penicillin/Streptomycin. Cells were plated in 384-well tissue culture plates and treated with compound dilutions in DMSO/media. Plates were incubated at 37° C., 5% CO2 for 48 hours. After 48 hours, Celltiter-Glo® (Promega) was added to each well and luciferase signal was quantified using Tecan Infinite M1000 Pro for cell viability determination.
as §1

Data set [7] has as its system PD1-ss+10aa/Gaussia Luciferase. Kind of data set: Dox-Induced PD1-ss-Gluc Assay. The data set is classed as cell-based. To be noted: 24 hr Dox induction; 293FRT/TO cells; mean; read-out: 24 hr Dox Inducible PD1ssGluc 293FRT/TO: Mean IC50.
Text: as §2, with “PD1 signal sequence plus 10 amino” for “full length IL-2 (amino”, “(N-[…]-C) (SEQ ID NO: 1).” for “1-153).”, “PD1-ss+10aa/Gaussia” for “IL-2-FL/Gaussia”
as §1

Data set [8] can be described thus: Liver Microsome Stability Assay (mouse). Conditions: mouse liver microsomes, with NADPH, 1.0 uM compound.
Procedure: as §3

As to `O=C(Nc1nc([C@H]2CCCN2c2ccccc2)cs1)c1cccn1CCCc1c[nH]nn1` [Compound C27, (R)-1-(3-(1H-1,2,3-triazol-5-yl)propyl)-N-(4-(1-phenylpyrrolidin-2-yl)thiazol-2-yl)-1H-pyrrole-2-carboxamide], the pEC50 in data set [1] was 4.62; in data set [6], < 4.60. The “Liver Microsome Stability (Multiple Species): Human - % Remaining after 30 min w/NADPH” value in data set [2] is 3.25%. Moreover, in data set [3], the “Liver Microsome Stability (Multiple Species): Rat - % Remaining after 30 min w/NADPH” value amounted to 1.26%. For the same compound, the pIC50 was 5.58 in data set [4] and 6.17 in data set [7]. Also, in data set [4], the “24 hr Dox Inducible IL2FLGluc 293FRT/TO: IL2/PD1” value was determined as 3.9. Besides, the “Liver Microsome Stability (Multiple Species): Monkey - % Remaining after 30 min w/NADPH” value in data set [5] stood at 3.74%. In addition, the “Liver Microsome Stability (Multiple Species): Mouse - % Remaining after 30 min w/NADPH” value in data set [8] was determined as 4.86%.

Turning to `O=C(Nc1nc([C@H]2CCCN2c2ccccc2)cs1)c1cccn1Cc1cnn[nH]1` [Compound C29, (R)-1-((1H-1,2,3-triazol-5-yl)methyl)-N-(4-(1-phenylpyrrolidin-2-yl)thiazol-2-yl)-1H-pyrrole-2-carboxamide], the pEC50 in data set [1] and in data set [6] was < 4.60 each time. In addition, the “Liver Microsome Stability (Multiple Species): Human - % Remaining after 30 min w/NADPH” value in data set [2] came to 46.1%. Also, the “Liver Microsome Stability (Multiple Species): Rat - % Remaining after 30 min w/NADPH” value in data set [3] was determined as 17%. In addition, the results for the pIC50 in data set [4] and in data set [7] were < 4.60 and 5.31, respectively. In addition, the “24 hr Dox Inducible IL2FLGluc 293FRT/TO: IL2/PD1” value in data set [4] is reported as >5.1. Moreover, in data set [5], the “Liver Microsome Stability (Multiple Species): Monkey - % Remaining after 30 min w/NADPH” value is recorded as 41.9%. Also, the “Liver Microsome Stability (Multiple Species): Mouse - % Remaining after 30 min w/NADPH” value in data set [8] is 37.5%.

For `C#CCCCCn1cccc1C(=O)Nc1nc([C@H]2CCCN2c2ccccc2)cs1` [Compound C30, (R)-1-(hex-5-yn-1-yl)-N-(4-(1-phenylpyrrolidin-2-yl)thiazol-2-yl)-1H-pyrrole-2-carboxamide], the pEC50 in data set [1] and in data set [6] was < 4.60 each time. The “Liver Microsome Stability (Multiple Species): Human - % Remaining after 30 min w/NADPH” value in data set [2] came to 39.8%. Also, the “Liver Microsome Stability (Multiple Species): Rat - % Remaining after 30 min w/NADPH” value in data set [3] stood at 9.91%. Also, the pIC50 in data set [4] is 5.25; in data set [7], 5.28. The “24 hr Dox Inducible IL2FLGluc 293FRT/TO: IL2/PD1” value in data set [4] worked out at 1.1. In data set [5], the “Liver Microsome Stability (Multiple Species): Monkey - % Remaining after 30 min w/NADPH” value is 5.63%. Besides, the “Liver Microsome Stability (Multiple Species): Mouse - % Remaining after 30 min w/NADPH” value in data set [8] was determined as 37.6%.

Consider `C#CCCCn1cccc1C(=O)Nc1nc([C@H]2CCCN2c2ccccc2)cs1` [Compound C31, (R)-1-(pent-4-yn-1-yl)-N-(4-(1-phenylpyrrolidin-2-yl)thiazol-2-yl)-1H-pyrrole-2-carboxamide], for which the pEC50 in data set [1] and in data set [6] was < 4.60 in each case. Also, the “Liver Microsome Stability (Multiple Species): Human - % Remaining after 30 min w/NADPH” value in data set [2] is 53.4%. Besides, the “Liver Microsome Stability (Multiple Species): Rat - % Remaining after 30 min w/NADPH” value in data set [3] is listed as 5.84%. Besides, the pIC50 in data set [4] was 5.15; in data set [7], 5.38. Also, in data set [4], the “24 hr Dox Inducible IL2FLGluc 293FRT/TO: IL2/PD1” value came to 1.7. Also, the “Liver Microsome Stability (Multiple Species): Monkey - % Remaining after 30 min w/NADPH” value in data set [5] was 1.3%. Moreover, the “Liver Microsome Stability (Multiple Species): Mouse - % Remaining after 30 min w/NADPH” value in data set [8] amounted to 38.7%.

For the compound `C#CCn1cccc1C(=O)Nc1nc([C@H]2CCCN2c2ccccc2)cs1` [Compound C33, (R)-N-(4-(1-phenylpyrrolidin-2-yl)thiazol-2-yl)-1-(prop-2-yn-1-yl)-1H-pyrrole-2-carboxamide], the values for the pEC50 in data set [1] and in data set [6] were 4.62 and < 4.60, respectively. In data set [2], the “Liver Microsome Stability (Multiple Species): Human - % Remaining after 30 min w/NADPH” value is reported as 54.7%. In addition, in data set [3], the “Liver Microsome Stability (Multiple Species): Rat - % Remaining after 30 min w/NADPH” value stood at 20.3%. Also, the pIC50 was 5.22 in data set [4] and 5.01 in data set [7]. For the same compound, in data set [4], the “24 hr Dox Inducible IL2FLGluc 293FRT/TO: IL2/PD1” value is reported as 0.63. Moreover, the “Liver Microsome Stability (Multiple Species): Monkey - % Remaining after 30 min w/NADPH” value in data set [5] is 65%. Moreover, the “Liver Microsome Stability (Multiple Species): Mouse - % Remaining after 30 min w/NADPH” value in data set [8] is given as 41.1%.

As for `O=C(Nc1nc([C@H]2CCCN2c2ccccc2)cs1)c1cccn1CC1CCS(=O)(=O)CC1` [Compound C37, (R)-1-((1,1-dioxidotetrahydro-2H-thiopyran-4-yl)methyl)-N-(4-(1-phenylpyrrolidin-2-yl)thiazol-2-yl)-1H-pyrrole-2-carboxamide], the pEC50 in data set [1] and in data set [6] was < 4.60 throughout. In addition, the “Liver Microsome Stability (Multiple Species): Human - % Remaining after 30 min w/NADPH” value in data set [2] is given as 6.44%. Further, the “Liver Microsome Stability (Multiple Species): Rat - % Remaining after 30 min w/NADPH” value in data set [3] was found to be 0.08%. Moreover, the pIC50 in data set [4] and in data set [7] was < 4.60 in each case. For the same compound, the “Liver Microsome Stability (Multiple Species): Monkey - % Remaining after 30 min w/NADPH” value in data set [5] was found to be 8.58%. Also, the “Liver Microsome Stability (Multiple Species): Mouse - % Remaining after 30 min w/NADPH” value in data set [8] is recorded as 26%.

In the case of `O=C(Nc1nc([C@H]2CCCN2c2ccccc2)cs1)c1cccn1CC1CCCCC1` [Compound C39, (R)-1-(cyclohexylmethyl)-N-(4-(1-phenylpyrrolidin-2-yl)thiazol-2-yl)-1H-pyrrole-2-carboxamide], the pEC50 in data set [1] and in data set [6] was < 4.60 each time. The “Liver Microsome Stability (Multiple Species): Human - % Remaining after 30 min w/NADPH” value in data set [2] was determined as 79.7%. Also, the “Liver Microsome Stability (Multiple Species): Rat - % Remaining after 30 min w/NADPH” value in data set [3] was 56.6%. For the same compound, the figures for the pIC50 in data set [4] and in data set [7] were 5.47 and 5.56, respectively. Also, the “24 hr Dox Inducible IL2FLGluc 293FRT/TO: IL2/PD1” value in data set [4] is recorded as 1.2. Besides, the “Liver Microsome Stability (Multiple Species): Monkey - % Remaining after 30 min w/NADPH” value in data set [5] amounted to 53.9%. For the same compound, in data set [8], the “Liver Microsome Stability (Multiple Species): Mouse - % Remaining after 30 min w/NADPH” value was found to be 64.7%.

With `N#Cc1cccc(Cn2cccc2C(=O)Nc2nc([C@H]3CCCN3c3ccccc3)cs2)c1` [Compound C49, (R)-1-(3-cyanobenzyl)-N-(4-(1-phenylpyrrolidin-2-yl)thiazol-2-yl)-1H-pyrrole-2-carboxamide], the pEC50 in data set [1] and in data set [6] was < 4.60 each time. For the same compound, the “Liver Microsome Stability (Multiple Species): Human - % Remaining after 30 min w/NADPH” value in data set [2] is 1.94%. The “Liver Microsome Stability (Multiple Species): Rat - % Remaining after 30 min w/NADPH” value in data set [3] stood at 2.9%. Further, the results for the pIC50 in data set [4] and in data set [7] were 5.79 and 6.04, respectively. Besides, in data set [4], the “24 hr Dox Inducible IL2FLGluc 293FRT/TO: IL2/PD1” value worked out at 1.8. The “Liver Microsome Stability (Multiple Species): Monkey - % Remaining after 30 min w/NADPH” value in data set [5] is given as 9.17%. In data set [8], the “Liver Microsome Stability (Multiple Species): Mouse - % Remaining after 30 min w/NADPH” value is reported as 29.1%.

`N#Cc1ccc(Cn2cccc2C(=O)Nc2nc([C@H]3CCCN3c3ccccc3)cs2)cc1` [Compound C50, (R)-1-(4-cyanobenzyl)-N-(4-(1-phenylpyrrolidin-2-yl)thiazol-2-yl)-1H-pyrrole-2-carboxamide]: the pEC50 in data set [1] and in data set [6] was < 4.60 in each case. Further, in data set [2], the “Liver Microsome Stability (Multiple Species): Human - % Remaining after 30 min w/NADPH” value is reported as 33.8%. The “Liver Microsome Stability (Multiple Species): Rat - % Remaining after 30 min w/NADPH” value in data set [3] was 15.1%. Further, the pIC50 in data set [4] was 5.69; in data set [7], 5.50. The “24 hr Dox Inducible IL2FLGluc 293FRT/TO: IL2/PD1” value in data set [4] is 0.66. Further, in data set [5], the “Liver Microsome Stability (Multiple Species): Monkey - % Remaining after 30 min w/NADPH” value was 33.4%. Besides, the “Liver Microsome Stability (Multiple Species): Mouse - % Remaining after 30 min w/NADPH” value in data set [8] is reported as 54.5%.
